Details: Capillary rise

COCCOC [1,2-dimethoxyethane]
Details | surface tension liquid-gas [mN/m]
278.17 K | 26.52
283.17 K | 25.97
288.18 K | 25.28
293.17 K | 24.67
298.03 K | 23.94
303.15 K | 23.42
308.12 K | 22.84
313.16 K | 22.25
318.17 K | 21.56
323.18 K | 21.02
328.17 K | 20.41
333.17 K | 19.83
338.17 K | 19.29
343.17 K | 18.74
348.17 K | 18.12
353.18 K | 17.59
358.17 K | 16.91
363.17 K | 16.35
368.17 K | 15.74
373.17 K | 15.23

CCOC(=O)OCC [diethyl carbonate]
Details | surface tension liquid-gas [mN/m]
273.18 K | 29.15
278.18 K | 28.63
283.18 K | 28.07
288.18 K | 27.48
293.16 K | 26.81
298.1 K | 26.26
303.17 K | 25.64
308.11 K | 25.14
313.19 K | 24.48
318.16 K | 24.03
323.16 K | 23.47
328.12 K | 22.98
333.18 K | 22.35
338.17 K | 21.81
343.17 K | 21.23
348.17 K | 20.69
353.19 K | 20.16
358.18 K | 19.64
363.16 K | 19.13
368.18 K | 18.69
373.17 K | 18.01

CCOC(=O)CCCCC(=O)OCC [diethyl hexanedioate]
Details | surface tension liquid-gas [mN/m]
293.16 K | 32.7
298.09 K | 32.2
303.17 K | 31.6
308.11 K | 31
313.18 K | 30.3
318.15 K | 29.7
323.17 K | 29.2
328.12 K | 28.7
333.16 K | 28.3
338.16 K | 27.7
343.15 K | 27.2
348.13 K | 26.6
353.16 K | 26.2
358.13 K | 25.8
363.13 K | 25.3
368.15 K | 24.8
373.14 K | 24.3
